In patent US20230146939A1, “TREATMENT FOR HUMAN CORONAVIRUS INFECTION” (THE ADMINISTRATORS OF THE TULANE EDUCATIONAL FUND, priority 2020, published 2023):

What was measured:
lung tissue = conditions: saline/ATN-161, no SARS-CoV-2
[1] = in vivo; cited from earlier work
[2] = cancer patients; cited from earlier work
SARS-CoV-2 = conditions: 1 h

Row | Substance | H&E histopathological changes in uninfected mice (lung tissue) | Masson's trichrome histopathological changes in uninfected mice (lung tissue) | tissue distribution [1] | safety in human clinical trials [2] | IC50 (SARS-CoV-2) [µM]
1 | Ac-PHSCN-NH2 [ATN-161, Ac-PHSCN-NH2] [listing 1 of 2 here] | no histopathological changes in any of the mice | no histopathological changes in any of the mice | high tissue distribution | no dose limiting toxicity | 
2 | Ac-PHSCN-NH2 [ATN-161, Ac-PHSCN-NH2] [listing 2 of 2 here] |  |  |  |  | 3.16
